Results published in patent US20260176295A1, “PHOSPHONATE CONJUGATES AND USES THEREOF” (The Translational Genomics Research Institute, priority 2019, published 2026).
Like-named read-outs stand apart in the source and are kept apart here.

What was measured:
[1] = biological target: RON/MST1R (Homo sapiens, UniProt Q04912); assay: Ron tyrosine kinase inhibition assay (10 dose IC50 mode, 10 μM ATP); assay type: biochemical; conditions: read-out: Compound IC50
Protocol: Compounds were tested in 10 dose IC50 mode with 3-fold serial dilution starting at 100 μM. […] Reactions were carried out at 10 μM ATP. Data pages include raw data, % Enzyme activity (relative to DMSO controls) and curve fits. Curve fits were performed where the enzyme activities at the highest concentration of compounds were less than 65%.
IC50 values may be determined using GraphPad Prism 5 software. The data may be entered as an X-Y plot into the software as percent inhibition for each concentration of the drug. The concentration values of the drug may be log transformed and the nonlinear regression may be carried out using the “sigmoidal dose-response (variable slope)” option within the GraphPad software to model the data and calculate IC50 values. The IC50 values reported are the concentration of drug at which 50% inhibition was reached.

[2] = biological target: T1, RON Kinase Enzyme (Homo sapiens, UniProt Q04912); assay: Kinase ADP-Glo inhibition assay; assay type: biochemical; conditions: 25 μM ATP
T1 construct: purchased Promega V3921
T1 sequence (Q04912 25-1400): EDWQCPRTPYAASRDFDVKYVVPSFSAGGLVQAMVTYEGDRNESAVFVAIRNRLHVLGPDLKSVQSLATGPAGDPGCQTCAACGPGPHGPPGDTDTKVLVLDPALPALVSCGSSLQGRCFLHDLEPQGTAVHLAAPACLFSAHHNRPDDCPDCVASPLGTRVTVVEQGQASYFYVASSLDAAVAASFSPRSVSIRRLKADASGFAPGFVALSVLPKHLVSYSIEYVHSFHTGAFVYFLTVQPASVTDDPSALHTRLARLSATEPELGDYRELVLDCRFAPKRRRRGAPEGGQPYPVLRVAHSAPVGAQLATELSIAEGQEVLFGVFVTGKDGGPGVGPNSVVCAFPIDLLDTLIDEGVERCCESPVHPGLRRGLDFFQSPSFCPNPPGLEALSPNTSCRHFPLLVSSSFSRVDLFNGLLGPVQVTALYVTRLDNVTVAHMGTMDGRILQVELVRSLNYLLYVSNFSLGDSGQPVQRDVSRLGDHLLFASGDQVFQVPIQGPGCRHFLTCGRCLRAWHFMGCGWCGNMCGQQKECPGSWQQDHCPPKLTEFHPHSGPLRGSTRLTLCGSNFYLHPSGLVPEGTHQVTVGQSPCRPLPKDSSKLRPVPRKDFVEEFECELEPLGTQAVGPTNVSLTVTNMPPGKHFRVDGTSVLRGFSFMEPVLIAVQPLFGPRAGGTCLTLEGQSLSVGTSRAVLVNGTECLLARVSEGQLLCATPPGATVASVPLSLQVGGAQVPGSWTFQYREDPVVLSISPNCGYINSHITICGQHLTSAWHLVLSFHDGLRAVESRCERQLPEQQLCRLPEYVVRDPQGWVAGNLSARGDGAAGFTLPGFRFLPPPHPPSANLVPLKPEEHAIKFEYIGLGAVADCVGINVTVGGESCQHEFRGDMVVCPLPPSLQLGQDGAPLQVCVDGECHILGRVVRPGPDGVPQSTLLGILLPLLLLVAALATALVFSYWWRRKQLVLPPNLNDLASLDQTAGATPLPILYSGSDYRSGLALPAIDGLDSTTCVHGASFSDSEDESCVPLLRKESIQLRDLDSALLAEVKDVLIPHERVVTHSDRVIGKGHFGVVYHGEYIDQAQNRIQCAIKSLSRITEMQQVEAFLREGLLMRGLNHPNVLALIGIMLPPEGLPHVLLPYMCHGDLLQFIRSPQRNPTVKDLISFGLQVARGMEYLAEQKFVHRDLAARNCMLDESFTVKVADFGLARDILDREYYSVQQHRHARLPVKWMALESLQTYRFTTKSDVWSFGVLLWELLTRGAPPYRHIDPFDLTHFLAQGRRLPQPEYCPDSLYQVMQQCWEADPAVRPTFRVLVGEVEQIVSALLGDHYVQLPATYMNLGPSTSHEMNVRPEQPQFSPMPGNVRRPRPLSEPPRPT
Protocol: • Assay Buffer • 40 mM Tris-HCl pH7.5, 20 mM MgCl2, 0.1 mg/mL BSA • RON Kinase Enzyme System (Promega #: V3921) • Axltide Substrate • RON Kinase Enzyme • ADP-Glo™ Assay (Promega #: V9101) • ATP, 10 mM • ADP-Glo™ Reagent • Kinase Detection Reagent • 384-well white assay plates
A ten point serial dilution of compound was prepared at 5× concentration in assay buffer with the final assay concentrations starting at 30 μM, 10 μM, 3 μM, 1 μM . . . 0 μM. Enzyme, substrate, and ATP were used at 25 ng, 200 ng and 25 μM, respectively. The assay plate was set up by mixing the components in a total reaction volume of 10 μL per well. The plate was centrifuged gently for 10 seconds and incubated at room temperature (RT) for 60 minutes in the dark. The ADP-Glo Reagent and kinase detection reagent were added and incubated as recommended. The reaction was quantified by measuring luminescence on the Perkin Elmer Envision plate reader. Data was analyzed using Graphpad Prism 7 software.

[3] = Pharmacokinetic (PK) study of phosphate conjugates of BMS-777607 in male swiss albino mice; assay type: in vivo; conditions: 2 mg/kg single intravenous bolus; for AUC(0-inf) / AUC(0-t) / C0 / clearance / half-life / Vd / Kp: mouse; for Vd: read-out: VSS; for Kp: read-out: bone to plasma ratios (AUClast)
Protocol: For extended time points (>24 hrs), BID dosing was done 8 hr apart.
The study was performed using sparse design to obtain composite profile (n=3/time point) as summarized in the table1. Blood and whole bone with marrow were collected at predetermined time points. At each time point, about 120 μL of blood was collected by retro-orbital sinus puncture into a labeled microfuge tube containing 200 mM K2EDTA solution (20 μL per mL of blood). The blood samples were processed within 30 minutes to obtain the plasma samples. At respective time points, blood samples were collected and animals were euthanized to harvest whole femur bone (bone with marrow). All plasma and bone with marrow samples were stored at −80° C.
The plasma and bone with bone marrow homogenate samples were analyzed using a fit-for purpose LC-MS/MS method with a lower limit of quantification (LLOQ) of 1.00 ng/ml (plasma) and 11.0 ng/g (bone). In some instances, bone marrow was separated from bone and analyzed independently. The pharmacokinetic parameters of the drugs were calculated using the non-compartmental analysis tool of validated Phoenix® WinNonlin® software (version 8.0).

[4] = male, Swiss Albino, in vivo, iv, 2 mg/kg, Bone with Bone marrow
[5] = male, Swiss Albino, in vivo, iv, 2 mg/kg, Plasma
[6] = in vivo, Plasma, male Swiss Albino mice

Chain of RON/MST1R (Q04912 25-1400): as above

CCOc1ccn(-c2ccc(F)cc2)c(=O)c1C(=O)Nc1ccc(Oc2ccnc(NC(P(=O)(O)O)P(=O)(O)O)c2Cl)c(F)c1 [Compound 1, (((3-chloro-4-(4-(4-ethoxy-1-(4-fluorophenyl)-2-oxo-1,2-dihydropyridine-3-carboxamido)-2-fluorophenoxy)pyridin-2-yl)amino)methylene)diphosphonic acid]
IC50 [1]: 13.4 µM | IC50 [2]: 13400 nM

CCOc1ccn(-c2ccc(F)cc2)c(=O)c1C(=O)Nc1ccc(Oc2ccnc(N)c2Cl)c(F)c1 [BMS-777607, N-(4-((2-amino-3-chloropyridin-4-yl)oxy)-3-fluorophenyl)-4-ethoxy-1-(4-fluorophenyl)-2-oxo-1,2-dihydropyridine-3-carboxamide, reference compound]
IC50 [1]: 0.0172 µM | IC50 [2]: 18 nM | AUC(0-inf) ([3]; Plasma): 1690 ng·h/mL | AUC(0-t) ([3]; Plasma): 1690 ng·h/mL | C0 ([3]; Plasma): 3610 ng/mL | clearance ([3]; Plasma): 19.7 mL/min/kg | half-life ([3]; Plasma): 205 min | Vd ([3]; Plasma): 1.42 L/kg | AUC(0-t) ([3]; bone (without marrow), Bone only): 296 ng·h/mL | Kp ([3]; bone / plasma): 0.17

CCOc1ccn(-c2ccc(F)c(COP(=O)(O)O)c2)c(=O)c1C(=O)Nc1ccc(Oc2ccnc(N)c2Cl)c(F)c1 [Compound 13, sodium 5-(3-((4-((2-amino-3-chloropyridin-4-yl)oxy)-3-fluorophenyl)carbamoyl)-4-ethoxy-2-oxopyridin-1(2H)-yl)-2-fluorobenzyl phosphate]
IC50 [2]: 2430 nM

Nc1nccc(Oc2ccc(NC(=O)c3c(OCP(=O)([O-])[O-])ccn(-c4ccc(F)cc4)c3=O)cc2F)c1Cl.[Na+].[Na+] [Compound 10, (((3-((4-((2-amino-3-chloropyridin-4-yl)oxy)-3-fluorophenyl)carbamoyl)-1-(4-fluorophenyl)-2-oxo-1,2-dihydropyridin-4-yl)oxy)methyl)phosphonate]
IC50 [2]: 547 nM | accumulation in bone [3]: accumulated in the bone | AUCinf ([3]; Bone with Bone marrow): 2920 h*ng · h/mL | AUC(0-t) [3, 4]: 2420 ng·h/mL | clearance [3, 4]: 11.4 mL/min/kg | half-life [3, 4]: 96.6 min | Vd [3, 4]: 1.5 L/kg | AUC(0-t) [3, 5]: 9830 ng·h/mL | clearance [3, 5]: 3.36 mL/min/kg | half-life [3, 5]: 59.2 min | Vd [3, 5]: 0.179 L/kg | Kp ([3]; in vivo): 0.25 | AUC(0-inf) ([3]; in vivo, Plasma): 9910 ng·h/mL | C0 ([3]; in vivo, Plasma): 16000 ng/mL

CCOc1ccn(-c2ccc(F)c(OCCC(P(=O)(O)O)P(=O)(O)O)c2)c(=O)c1C(=O)Nc1ccc(Oc2ccnc(N)c2Cl)c(F)c1 [Compound 11, sodium (3-(5-(3-((4-((2-amino-3-chloropyridin-4-yl)oxy)-3-fluorophenyl)carbamoyl)-4-ethoxy-2-oxopyridin-1(2H)-yl)-2-fluorophenoxy)propane-1,1-diyl)bis(phosphonate)]
IC50 [2]: 1270 nM

CCOc1ccn(-c2ccc(F)c(OP(=O)(O)O)c2)c(=O)c1C(=O)Nc1ccc(Oc2ccnc(N)c2Cl)c(F)c1 [Compound 12, sodium 5-(3-((4-((2-amino-3-chloropyridin-4-yl)oxy)-3-fluorophenyl)carbamoyl)-4-ethoxy-2-oxopyridin-1(2H)-yl)-2-fluorophenyl phosphate]
IC50 [2]: 58 nM | AUC(0-inf) [3, 6]: 963 ng·h/mL | AUC(0-t) [3, 6]: 959 ng·h/mL | C0 [3, 6]: 4680 ng/mL | clearance [3, 6]: 34.6 mL/min/kg | half-life [3, 6]: 70.2 min | Vd [3, 6]: 0.879 L/kg

CCOc1ccn(-c2ccc(F)cc2)c(=O)c1C(=O)Nc1ccc(Oc2ccnc(NC(P(=O)(OCC)OCC)P(=O)(OCC)OCC)c2Cl)c(F)c1 [Compound 9, tetraethyl (((3-chloro-4-(4-(4-ethoxy-1-(4-fluorophenyl)-2-oxo-1,2-dihydropyridine-3-carboxamido)-2-fluorophenoxy)pyridin-2-yl)amino)methylene)bis(phosphonate)]
IC50 [2]: 33800 nM
